Assay results from article PMC5350466 (mBio, 2017).
≈ marks a conversion by molar mass, not a printed value.

What was measured:
[1] = target: Burkholderia cenocepacia BcnA (BCAL3311) (Burkholderia cenocepacia); experiment: other; competition with Nile red, PBS
BcnB = experiment: In vitro binding of Nile red to BcnB; design: species or system Burkholderia cenocepacia; conditions: 1.5 µM BcnB vs 1.5 µM BcnA
Procedure: In vitro binding assays were performed as previously described ([23]), with a few modifications. Purified BCNs were prepared in phosphate-buffered saline (PBS, pH 7.4). Phospholipids and Nile red were prepared in DMSO. […] All spectra were corrected for background fluorescence determined from probe-into-buffer titrations. Fluorescence was measured with a Cary Eclipse fluorescence spectrophotometer (Varian) set at an excitation wavelength (λex) specific for each probe, as follows: Nile red, 550 nm; BODIPY phospholipids, 500 nm for fatty acyl BODIPY-labeled phosphocholine and 505 nm for head group BODIPY-labeled phosphoethanolamine. The emission spectrum for each probe was collected across the following wavelengths (λem): Nile red, 590 to 750 nm; BODIPY phospholipids, 510 to 665 nm. The background-corrected binding fluorescence with each probe was fitted to a one-site binding model as previously described for human AGP ([23]). The equilibrium binding affinity constant for the probe-BCN complex (Kd), the probe concentration needed to achieve half-maximum binding at equilibrium, was determined by nonlinear least-squares regression analysis of the binding isotherms with GraphPad Prism v 5.0 software (GraphPad Software, Inc.).

ΔbcnA pbcnA1 (Pa) = experiment: MIC by E test; format: cell-based, Burkholderia cenocepacia; conditions: 24 h
ΔbcnA pbcnA2 (Pa) = experiment: MIC by E test; format: cell-based, Burkholderia cenocepacia; conditions: 24 h
ΔbcnA pbcnA (MTb) = format: cell-based, Burkholderia cenocepacia
ΔbcnA pbcnA = experiment: MIC by E test; format: cell-based, Burkholderia cenocepacia; conditions: 24 h
ΔbcnA pbcnA3 (Pa) = experiment: MIC by E test; format: cell-based, Burkholderia cenocepacia; conditions: 24 h
[2] = target: Burkholderia cenocepacia BcnB (BCAL3310) (Burkholderia cenocepacia); experiment: SEC-MALS; proteins diluted to 1 mg/ml in 20 mM Tris (pH 7.5)-100 mM NaCl

polymyxin B showed a Ki [1] of 0.67 mM.

In the case of `CCN(CC)c1ccc2nc3c4ccccc4c(=O)cc-3oc2c1` [Nile red], the “affinity of BcnB binding to Nile red, fold lower than that of BcnA” value (BcnB) is reported as ~ 20 fold.

PmB nonapeptide showed a Ki [1] of 5.08 mM.

In the case of `O=C(O)c1cn(C2CC2)c2cc(N3CCNCC3)c(F)cc2c1=O` [Cipro, ciprofloxacin], the “MIC by Etest, ΔbcnA pbcnA1 (Pa)” value (ΔbcnA pbcnA1 (Pa)) is reported as 4 µg/mL (≈ 12.1 µM), the “MIC by Etest, ΔbcnA pbcnA2 (Pa)” value (ΔbcnA pbcnA2 (Pa)) is reported as 4 µg/mL (≈ 12.1 µM) and the “MIC by Etest, ΔbcnA pbcnA (MTb)” value (ΔbcnA pbcnA (MTb)) is reported as 4 µg/mL (≈ 12.1 µM). For the same molecule, the “MIC by Etest, ΔbcnA pbcnA” value (ΔbcnA pbcnA) was 4 µg/mL (≈ 12.1 µM) and the “MIC by Etest, ΔbcnA pbcnA3 (Pa)” value (ΔbcnA pbcnA3 (Pa)) was 4 µg/mL (≈ 12.1 µM).

For `CO[C@H]1/C=C/O[C@@]2(C)Oc3c(C)c(O)c4c(O)c(c(/C=N/N5CCN(C)CC5)c(O)c4c3C2=O)NC(=O)/C(C)=C\C=C\[C@H](C)[C@H](O)[C@@H](C)[C@@H](O)[C@@H](C)[C@H](OC(C)=O)[C@@H]1C` [Rifampicin, rifampin], the “MIC by Etest, ΔbcnA pbcnA1 (Pa)” value (ΔbcnA pbcnA1 (Pa)) was no less than 64 µg/mL, the “MIC by Etest, ΔbcnA pbcnA2 (Pa)” value (ΔbcnA pbcnA2 (Pa)) was 32 µg/mL (≈ 38.9 µM) and the “MIC by Etest, ΔbcnA pbcnA (MTb)” value (ΔbcnA pbcnA (MTb)) was no less than 64 µg/mL. The “MIC by Etest, ΔbcnA pbcnA” value (ΔbcnA pbcnA) was no less than 64 µg/mL and the “MIC by Etest, ΔbcnA pbcnA3 (Pa)” value (ΔbcnA pbcnA3 (Pa)) was no less than 64 µg/mL.

“Burkholderia cenocepacia BcnB (BCAL3310) (natural protein)” was tested, and the stoichiometry N [2] was 2.

For `CC(C)(O/N=C(\C(=O)N[C@@H]1C(=O)N2C(C(=O)[O-])=C(C[n+]3ccccc3)CS[C@H]12)c1csc(N)n1)C(=O)O` [Ceftazidime, ceftazidime], the “MIC by Etest, ΔbcnA pbcnA1 (Pa)” value (ΔbcnA pbcnA1 (Pa)) was 8 µg/mL (≈ 14.6 µM), the “MIC by Etest, ΔbcnA pbcnA2 (Pa)” value (ΔbcnA pbcnA2 (Pa)) was 8 µg/mL (≈ 14.6 µM) and the “MIC by Etest, ΔbcnA pbcnA (MTb)” value (ΔbcnA pbcnA (MTb)) was 8 µg/mL (≈ 14.6 µM). The “MIC by Etest, ΔbcnA pbcnA” value (ΔbcnA pbcnA) was 8 µg/mL (≈ 14.6 µM) and the “MIC by Etest, ΔbcnA pbcnA3 (Pa)” value (ΔbcnA pbcnA3 (Pa)) was 8 µg/mL (≈ 14.6 µM).
